Reference: patent US10966423B2, “Anti-microbial agent comprising xanthohumol and the use thereof in food products” (Purac Biochem B.V., priority 2015, dated 2021)
Converted amounts (≈) assume the structure as drawn. Like-named read-outs stand apart in the source and are kept apart here.

What was measured:
Assay type in all cases: cell-based
[1] = system: lactic acid bacteria (L. curvatus, 3×L. plantarum and L. mesenteroides); experiment: shelf life of sausages inoculated with lactic acid bacteria
Experimental: Sausages were produced according to the following procedure. The ingredients defined as weight percentages in Table 5 were used for the preparation of the sausage. Xanthoflav was used as such, without a preparation step such as applied in Example 1.
First the meat was shredded, and salt, tri polyphosphate and half of the water was added. After mixing very well, the other ingredients were added. The meat dough was put in a cook crimp bag and vacuum sealed. After sealing the bags were canned. The sausages were cooked in a cooking cabinet for 120 minutes at 75° C. and afterwards cooled down to 15° C. […]
In a first step an inoculum was prepared as follows. Cultures of lactic acid bacteria (L. curvatus, 3×L. plantarum and L. mesenteroides) are started from plate and incubated overnight at 30° C. in screw-capped tubes (100×16 mm) containing 10 ml MRS broth.
Sausages were inoculated to a final level of about 1000 (10^3) CFU per g product. The sausage was inoculated with 1% Inoculum (approximately 5 ml Inoculum per 500 gram ground meat). […]
Fifty μl of the homogenate or dilution was subsequently plated on MRS agar using an Eddyjet type 1.23 spiral plater (IUL Instruments, Barcelona, Spain). […] The colonies were counted with the Acolyte Supercount automatic colony counter (Synoptics, Cambridge, UK) using the Synoptics software package. […]

Aspergillus Niger = experiment: visible growth of mould hyphae in MEA broth; conditions: MEA broth pH 3.5, 14 days, 25° C., 10^4 spores per ml; xanthohumol 0.008 wt %, propionate 0.085 wt %
Experimental: (§1) Two molds, Aspergillus Niger and Penicillium roquefortii were tested on the combinatory effect of xanthohumol in combination with propionate. MEA broth was inoculated with spores of the fungi to a concentration of 10^4 spores per ml. In this example use has been made of the stock solution of xanthohumol as has been described in example 1 above. 4 ml of said stock solution was added to 96 ml of broth to obtain a 0.008% w/w solution in broth.
(§2) Propionate was added to an end concentration of 0.085% of propionate in broth. Also a solution was made with 0.008% w/w of xanthohumol and 0.085% of propionate in broth. As a control experiment broth without antimicrobial components was used. The pH of all media was set to 3.5. After 14 days of incubation at 25° C., the broth was inspected for visible growth of mould hyphae.

Penicillium roquefortii [2] = experiment: visible growth of mould hyphae in MEA broth; conditions: MEA broth pH 3.5, 14 days, 25° C., 10^4 spores per ml; xanthohumol 0.008 wt %, propionate 0.085 wt %
Experimental: as §1, §2

Lactobacilllus curvatus = experiment: minimum inhibitory concentration on lactic acid bacteria, overnight in MRS medium; conditions: 10^5 cfu/ml
Experimental: (§3) One part xanthohumol Xantho-Flav Extract (with 2% of xanthohumol) on diatomaceous earth is incubated with 9 parts of hot water at 100° C., boiling for <1 minute while vigorously shaking. After incubation, solid material is discarded. This way, a stock solution with 10% of Xanthoflav or about 0.2% xanthohumol (2 mg/ml) is obtained, which is used in the following examples.
(§4) For testing the anti-microbial activity a test composition comprising xanthohumol was applied. The test composition was prepared as follows. At the highest concentration 100 μl of the xanthohumol stock solution at 2 mg/ml in water (See Example 1) was added to 100 μl of 2 times concentrated MRS medium, providing a test composition comprising 1 mg/ml by weight xanthohumol in MRS medium.
(§5) Pre-cultures of test bacteria were cultured using standard techniques. Bacteria were cultured in MRS medium 48 hrs before the start of the experiments.
(§6) Five μl of the bacterium pre-cultures was brought in 200 μl of test medium (medium+component+water) and mixed with a concentration series of the test composition comprising xanthohumol. Final bacterium density at the start of the overnight experiment was 10^5 cfu/ml. Xanthohumol was tested up to a concentration of 0.01 mg/ml (based on an addition level of up to 0.05% w/w of Xanthoflav). Negative control was inoculated broth, positive control was inoculated MRS medium. Bacterium cultures were cultured overnight at 30° C., under constant shaking. After incubation, the minimum inhibitory concentration for each test organism was scored (Table 1).

[3] = system: Lactobacillus acidophilus; experiment: as above; conditions: DSM20079, strain DSM 20079, 30° C., 10^5 cfu/ml, read-out: MIC calculated to xanthohumol
Experimental: as §3, §4, §5, §6

Lactobacillus brevis = experiment: as above; conditions: Levilactobacillus brevis, 10^5 cfu/ml, read-out: MIC calculated to xanthohumol
Experimental: as §3, §4, §5, §6

Lactobacillus farciminis = experiment: as above; conditions: Companilactobacillus farciminis, strain AR053, 30° C., 10^5 cfu/ml, read-out: MIC calculated to xanthohumol
Experimental: as §3, §4, §5, §6

Lactobacillus plantarum [4] = experiment: as above; conditions: Lactiplantibacillus plantarum, 10^5 cfu/ml, read-out: MIC calculated to xanthohumol
Experimental: as §3, §4, §5, §6

[5] = system: Leuconostoc mesenteroides; experiment: as above; conditions: strain AR049, 30° C., 10^5 cfu/ml, read-out: MIC calculated to xanthohumol
Experimental: as §3, §4, §5, §6

Aspergillus flavus = experiment: mold outgrowth (OD) in semi-solid MEA agar, xanthohumol/calcium propionate gradient; conditions: FIG. 4; day 13, pH 6; calcium propionate 0-0.5%, xanthohumol 0-0.00195%
Experimental: (§7) Five molds, Penicillium roquefortii, Aspergillus flavus, Fusarium oxysporum, Paecilomyces variotii, and Mucor plumbeus, were tested on the combinatory effect of xanthohumol combined with calcium propionate. In this example use has been made of a stock solution of 0.52% w/w XanthoFlav (equivalent to 0.0104% w/w xanthohumol) prepared in a similar manner as that described in example 1 above, as well as a stock solution of calcium propionate at 1.6% w/w. A modified semi-solid MEA agar was prepared by mixing 50 g of Malt Extract broth (Oxoid) with 7.5 g of Bacteriological Agar No. 1 (Oxoid) to create a 2× reduced agar MEA. This was autoclaved at 120° C. for 15 minutes. Bottles of this MEA were held at 50° C. until ready for inoculation, at which point they were inoculated with a single strain of the above listed molds at approximately 10^4 spores per ml. This level of inoculation ensures 500-1000 spores per well in the 96 well plate. All media was set to pH 6.
(§8) The 2×MEA was mixed with the stock solutions of xanthohumol, calcium propionate, and sterilized H2O as a diluent in 96 well plates using an automated plate filler to create a concentration gradient of calcium propionate ranging from 0% to 0.5% along one axis and xanthohumol from 0% to 0.00195% along the other axis. Wells containing 0% of both antimicrobials served as a control. This allowed for testing approximately 24 different combinations of the two antimicrobials on one plate. Each well contained 75 μL of inoculated 2× reduced agar MEA, 75 μL of a mix of antimicrobials/diluent, and was capped with 75 μL of paraffin oil after the agar had set. Ninety-six well plates were then sealed with an oxygen permeable membrane to prevent contamination of wells.
(§9) OD measurements were taken approximately once a day, and outgrowth (measured by an increase in OD) was tracked over time. Measurements at the final reading (day 13) were placed in a 3D graph to visualize the additive effects of the two antimicrobials as levels of each increased across the plate.

Fusarium oxysporum = experiment: as above; conditions: FIG. 2; day 13, pH 6; calcium propionate 0-0.5%, xanthohumol 0-0.00195%
Experimental: as §7, §8, §9

Mucor plumbeus = experiment: as above; conditions: FIG. 5; day 13, pH 6; calcium propionate 0-0.5%, xanthohumol 0-0.00195%
Experimental: as §7, §8, §9

Paecilomyces variotii = experiment: as above; conditions: FIG. 3; day 13, pH 6; calcium propionate 0-0.5%, xanthohumol 0-0.00195%
Experimental: as §7, §8, §9

Penicillium roquefortii [6] = experiment: as above; conditions: FIG. 1; day 13, pH 6; calcium propionate 0-0.5%, xanthohumol 0-0.00195%
Experimental: as §7, §8, §9

Lactobacillus plantarum [7] = experiment: growth of Lactobacillus plantarum in food products (baby food, pasta sauce); conditions: for Lactobacillus plantarum cell density: xanthohumol 0.004 mg/ml
Experimental: In this example, the influence of xanthohumol on growth of Lactobacillus plantarum in baby food and in pasta sauce was assessed. For this purpose the baby food was sterilized and the pH was adjusted at pH 4.8, and the pasta sauce was sterilized and the pH was adjusted to pH 4.2. At time-point t=0, three samples of both the baby food and the pasta sauce were inoculated with a Lactobacillus plantarum starter culture, at a final Lactobacillus cell density of approximately 1*10^4 cells/ml. For the baby food and the pasta sauce, one sample each was inoculated in the presence of 0.2% by weight xanthohumol composition to a final concentration of xanthohumol in the food product of 0.004 mg/ml. Lactobacillus plantarum cell density was determined in the food products at t=0 and at t=24 hours.

For `C[C@@H]1OC(=O)[C@H](C)OC1=O` [Nr 3: 0.8% Lactide, Lactide], the “Shelf life of sausages, Days till 10^7 cfu/g” value ([1]; inoculated about 10^3 CFU per g, vacuum sealed, stored at 7° C., control 8.0) was 12.5 Days and the “shelf life improvement as compared to the control” value ([1]; sausages stored at 7° C.) was “about 4 days”.
For `CCC(=O)O` [propionate, reference compound], the “visible growth of mould hyphae” value (Aspergillus Niger) was “Growth” and the “visible growth of mould hyphae” value (Penicillium roquefortii [2]) was “Growth”.
With `COc1cc(O)c(CC=C(C)C)c(O)c1C(=O)/C=C/c1ccc(O)cc1` [xanthohumol] the “MIC calculated to xanthohumol” value (Lactobacilllus curvatus; strain AR095, 30° C.) was 10 µg/mL (≈ 28.2 µM), the MIC (Lactobacilllus curvatus; strain Zand 2, 30° C., read-out: MIC calculated to xanthohumol) was 10 µg/mL (≈ 28.2 µM) and the MIC [3] was 10 µg/mL (≈ 28.2 µM). The MIC (Lactobacillus brevis; LMG6906, strain LMG 6906, 30° C.) was 2 µg/mL (≈ 5.64 µM), the MIC (Lactobacillus brevis; strain AR043, 30° C.) was 2 µg/mL (≈ 5.64 µM) and the MIC (Lactobacillus farciminis) was 4 µg/mL (≈ 11.3 µM). It also gave an MIC (Lactobacillus plantarum [4]; DSM20174, strain DSM 20174, 30° C.) of 4 µg/mL (≈ 11.3 µM), an MIC (Lactobacillus plantarum [4]; strain AR052, 30° C.) of 2 µg/mL (≈ 5.64 µM) and an MIC [5] of 2 µg/mL (≈ 5.64 µM). The “Inhibition of A. flavus (outgrowth by OD)” value (Aspergillus flavus) was “inhibiting effect by itself”, the “Inhibition of F. oxysporum (outgrowth by OD)” value (Fusarium oxysporum) was “inhibiting effect by itself” and the “Inhibition of M plumbeus (outgrowth by OD)” value (Mucor plumbeus) was “inhibiting effect by itself”. For the same compound, the “Inhibition of P. variotii (outgrowth by OD)” value (Paecilomyces variotii) was “inhibiting effect by itself”, the “Inhibition of P. roquefortii (outgrowth by OD)” value (Penicillium roquefortii [6]) was “inhibiting effect by itself” and the “visible growth of mould hyphae” value (Aspergillus Niger) was “Growth”. The “visible growth of mould hyphae” value (Penicillium roquefortii [2]) was “Growth”, the “Lactobacillus plantarum cell density” value (Lactobacillus plantarum [7]; baby food pH 4.8, 0 h) was 3.8 × 10^4 and the “Lactobacillus plantarum cell density” value (Lactobacillus plantarum [7]; baby food pH 4.8, 24 h, control 3 × 10^7) was 3 × 10^4. The “inhibitory effect on Lactobacillus plantarum” value (Lactobacillus plantarum [7]; in baby food and pasta sauce) was “strong inhibitory effect”, the “Lactobacillus plantarum cell density” value (Lactobacillus plantarum [7]; pasta sauce pH 4.2, 0 h) was 3 × 10^4 and the “Lactobacillus plantarum cell density” value (Lactobacillus plantarum [7]; pasta sauce pH 4.2, 24 h, control 6 × 10^5) was under 100.
